Source: ChEMBL document CHEMBL4406802, “Human disorders associated with inflammation and the evolving role of natural products to overcome” (Eur J Med Chem, 2019)
Values after ≈ are worked out from the molar mass of the structure shown.

Legend:
RAW264.7 [1] = test: Antiinflammatory activity in mouse RAW264.7 cells assessed as inhibition of LPS-induced nitric oxide production; assay type: functional, cell-based
[2] = biological target: T1, Prostaglandin G/H synthase 2 (Ovis aries, UniProt P79208); test: Inhibition of recombinant ovine COX2 using arachidonic acid as substrate preincubated for 15 mins followed by arachidonic acid addition measured after 2 mins by ELISA
T1 sequence (P79208 whole entry): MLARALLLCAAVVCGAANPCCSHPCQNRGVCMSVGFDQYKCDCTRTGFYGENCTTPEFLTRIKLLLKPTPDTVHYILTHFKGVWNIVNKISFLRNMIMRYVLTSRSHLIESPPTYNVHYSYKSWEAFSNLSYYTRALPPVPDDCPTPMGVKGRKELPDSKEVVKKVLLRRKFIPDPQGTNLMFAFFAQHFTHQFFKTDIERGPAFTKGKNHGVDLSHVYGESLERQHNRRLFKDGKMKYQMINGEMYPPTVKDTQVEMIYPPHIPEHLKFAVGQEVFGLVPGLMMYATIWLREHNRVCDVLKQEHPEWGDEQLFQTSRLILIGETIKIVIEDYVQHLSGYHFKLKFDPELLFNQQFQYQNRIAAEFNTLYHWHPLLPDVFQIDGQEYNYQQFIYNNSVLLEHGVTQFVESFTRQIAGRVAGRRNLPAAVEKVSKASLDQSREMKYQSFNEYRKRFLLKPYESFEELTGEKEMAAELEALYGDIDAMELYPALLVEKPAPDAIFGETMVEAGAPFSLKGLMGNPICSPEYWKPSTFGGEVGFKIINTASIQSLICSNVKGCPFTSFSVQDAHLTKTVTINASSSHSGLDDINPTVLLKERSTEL

[3] = biological target: T2, Prostaglandin G/H synthase 2 (Homo sapiens) (UniProt P35354); test: Inhibition of human COX2 at 10 uM using arachidonic acid as substrate measured for 300 secs intervals from 3 to 10 secs in presence of hematin by fluorescence assay relative to control
T2 sequence (whole entry): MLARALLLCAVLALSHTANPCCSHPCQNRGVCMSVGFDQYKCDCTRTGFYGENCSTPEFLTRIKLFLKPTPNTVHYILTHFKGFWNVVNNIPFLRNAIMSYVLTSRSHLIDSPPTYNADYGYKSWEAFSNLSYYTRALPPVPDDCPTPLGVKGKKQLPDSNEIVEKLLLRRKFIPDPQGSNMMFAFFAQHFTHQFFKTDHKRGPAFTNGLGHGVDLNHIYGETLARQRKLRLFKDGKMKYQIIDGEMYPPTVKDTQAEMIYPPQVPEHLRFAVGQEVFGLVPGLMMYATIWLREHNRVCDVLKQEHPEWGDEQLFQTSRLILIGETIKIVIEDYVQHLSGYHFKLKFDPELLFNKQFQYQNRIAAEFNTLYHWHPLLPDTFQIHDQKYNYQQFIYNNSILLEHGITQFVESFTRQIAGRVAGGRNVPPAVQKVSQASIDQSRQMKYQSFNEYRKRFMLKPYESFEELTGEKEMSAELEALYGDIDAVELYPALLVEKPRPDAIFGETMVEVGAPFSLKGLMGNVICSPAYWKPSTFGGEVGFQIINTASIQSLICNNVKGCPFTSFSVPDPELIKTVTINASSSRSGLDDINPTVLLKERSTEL

RAW264.7 [4] = test: Antiinflammatory activity in mouse RAW264.7 cells assessed as inhibition of LPS-induced nitric oxide production after 24 hrs by Griess reagent based assay; assay type: functional, cell-based; details: RAW264.7, 24 h

Row | Compound | IC50 (RAW264.7 [1]) | further results
1 | O=c1cc(-c2ccc(O)cc2O)oc2cc(O)cc(O)c12 [NORARTOCARPETIN] | 6.1 µg/mL | –
2 | C[C@@H]1O[C@@H](O[C@@H]2[C@@H](O)[C@H](OCCc3ccc(O)c(O)c3)O[C@H](CO)[C@H]2OC(=O)/C=C/c2ccc(O)c(O)c2)[C@H](O)[C@H](O[C@@H]2OC[C@](O)(CO)[C@H]2O)[C@H]1O | – | IC50 [2]: 21.5 µM
3 | CC(C)=CCC1C(=O)c2c(O)cc3c(c2OC1c1ccc(O)cc1O)C=CC(C)(C)O3 (stereo unspecified) | 5.3 µg/mL | –
4 | C[C@@H]1O[C@@H](O[C@@H]2[C@@H](O[C@@H]3OC[C@](O)(CO)[C@H]3O)[C@H](OCCc3ccc(O)c(O)c3)O[C@H](CO)[C@H]2OC(=O)/C=C/c2ccc(O)c(O)c2)[C@H](O)[C@H](O)[C@H]1O | – | IC50 [2]: 18.2 µM
5 | COc1ccc(CC2(O)COc3cc(O)cc(O)c3C2=O)cc1 (stereo unspecified) | – | inhibition [3]: 71.4%
6 | O=C1c2c(O)cc(O)cc2OCC1Cc1ccc(O)cc1 (stereo unspecified) | – | inhibition [3]: 13.3%
7 | CC[C@H](CC[C@@H](C)[C@H]1CC[C@H]2[C@@H]3CCC4=CC(=O)CC[C@]4(C)[C@H]3CC[C@]12C)C(C)C | 15.9 µM | –
8 | CC(C)=CCc1c(-c2ccc(O)cc2O)oc2cc3c(c(O)c2c1=O)C=CC(C)(C)O3 [CUDRAFLAVONE B] | 7.4 µg/mL | –
9 | O=C(/C=C/c1ccc(O)cc1O)c1ccc(O)cc1O | – | IC50 (RAW264.7 [4]): 10.2 µg/mL (≈ 37.5 µM)
10 | C=C(C)C(=O)Cc1c(-c2ccc(O)cc2O)oc2c(CC=C(C)C)c(O)cc(O)c2c1=O | 4.3 µg/mL | –
11 | CC(C)=CCc1c(-c2ccc(O)cc2O)oc2cc3c(c(O)c2c1=O)CC(C(C)(C)O)O3 (stereo unspecified) | 2.2 µg/mL | –
12 | CC(C)=CCc1c(O)ccc(C(=O)[C@H]2[C@@H](c3cc(O)cc4oc(-c5ccc(O)cc5O)cc34)C=C(C)C[C@@H]2c2ccc(O)cc2O)c1O | 12.8 µg/mL | –
13 | COc1cc(OC(C)=O)c2c(c1)O[C@H](OC(C)=O)[C@]1(Cc3cc4c(cc31)COC4)C2=O | – | inhibition [3]: 89%
14 | CC(=O)OC[C@H]1O[C@@H](OCCc2ccc(O)c(O)c2)[C@H](O)[C@@H](O[C@@H]2O[C@@H](C)[C@H](O)[C@@H](O)[C@H]2O)[C@@H]1OC(=O)/C=C/c1ccc(O)c(O)c1 | – | IC50 [2]: 9.4 µM
15 | COc1cc(OC(C)=O)c2c(c1)O[C@H](OC(C)=O)[C@@]1(Cc3cc4c(cc31)COC4)C2=O | – | inhibition [3]: 20.9%
16 | CC(=O)OC[C@H]1O[C@@H](OCCc2ccc(O)c(O)c2)[C@H](O)[C@@H](O[C@@H]2O[C@@H](C)[C@H](O)[C@@H](O[C@@H]3OC[C@](O)(CO)[C@H]3O)[C@H]2O)[C@@H]1OC(=O)/C=C/c1ccc(O)c(O)c1 | – | IC50 [2]: 19.6 µM
17 | COc1cc(O)c2c(c1)OCC1(Cc3c1cc(OC)c(OC)c3O)C2=O (stereo unspecified) | – | inhibition [3]: 101%
18 | CC[C@H](CC[C@@H](C)[C@H]1CC[C@H]2[C@@H]3CC=C4C[C@@H](O[C@@H]5O[C@H](CO)[C@@H](O)[C@H](O)[C@H]5O)CC[C@]4(C)[C@H]3CC[C@]12C)C(C)C [SITOGLUSIDE] | 77.4 µM | –
19 | CC1=CCc2ccc3cc(-c4cc(O)cc(O)c4)oc3c2OC1 | – | IC50 (RAW264.7 [4]): 19.8 µg/mL (≈ 64.2 µM)
20 | CC(C)=CCC/C(C)=C/Cc1c(O)cc2oc(-c3ccc(O)cc3)cc(=O)c2c1O | 4.1 µg/mL | –
21 | CC(C)=CCC1C(=O)c2c(O)cc3c(c2OC1c1ccc(O)cc1O)C=CC(C)(CO)O3 (stereo unspecified) | 5.2 µg/mL | –
22 | COc1cc(O[C@@H]2O[C@H](CO)[C@@H](O)[C@H](O)[C@H]2O[C@@H]2OC[C@](O)(COC(=O)c3ccc(O)c(O)c3)[C@H]2O)ccc1O | – | IC50 [2]: 29.2 µM

Second part, led by results:

Row | IC50 (RAW264.7 [1]) | Compound | further results
23 | 3.5 µg/mL | CC(C)=CCc1c(O)ccc(C(=O)/C=C/c2ccc(O)cc2)c1O [ISOBAVACHALCONE] | –
24 | 10.3 µg/mL | O=C1CC(c2ccc(O)cc2O)Oc2cc(O)ccc21 (stereo unspecified) | –
25 | 9.6 µg/mL | CC(C)=CCc1c(-c2ccc(O)cc2O)oc2c(CC=C(C)C)c(O)cc(O)c2c1=O [KUWANON C] | –
26 | 6.6 µg/mL | C=C(C)C(O)Cc1c(O)cc(O)c2c(=O)c(CC=C(C)C)c(-c3ccc(O)cc3O)oc12 (stereo unspecified) | –
